Data taken from patent US20210267203A1, “PESTICIDALLY ACTIVE AZOLE-AMIDE COMPOUNDS” (SYNGENTA PARTICIPATIONS AG, priority 2018, published 2021).

Key:
Assay type in all cases: in vivo
[1] = system: Myzus persicae (Green Peach Aphid); experiment: Example B13: activity against Myzus persicae (green peach aphid), 96-well sucrose solution; details: 120 h, application rate 50 ppm, 5 days after infestation
Source text: Example B13: Activity Against Myzus persicae (Green Peach Aphid)
Test compounds prepared from 10,000 ppm DMSO stock solutions were applied by a liquid handling robot into 96-well microtiter plates and mixed with a sucrose solution. Parafilm was stretched over the 96-well microtiter plate and a plastic stencil with 96 holes was placed onto the plate. Aphids were sieved into the wells directly onto the Parafilm. The infested plates were closed with a gel blotting card and a second plastic stencil and then turned upside down. The samples were assessed for mortality 5 days after infestation.

[2] = system: Plutella xylostella (Diamond Back Moth); experiment: Example B5: Plutella xylostella (diamond back moth), artificial diet, 24-well, eggs; details: 192 h, application rate 200 ppm, 8 days after infestation, read-out: effect in at least one of the two categories (mortality or growth inhibition)
Procedure: Example B5: Plutella xylostella (Diamond Back Moth)
24-well microtiter plates with artificial diet were treated with aqueous test solutions prepared from 10,000 ppm DMSO stock solutions by pipetting. After drying, Plutella eggs were pipetted through a plastic stencil onto a gel blotting paper and the plate was closed with it. The samples were assessed for mortality and growth inhibition in comparison to untreated samples 8 days after infestation. The following compounds gave an effect of at least 80% in at least one of the two categories (mortality or growth inhibition) at an application rate of 200 ppm: […]

[3] = system: Plutella xylostella (Diamondback Moth); experiment: Example B14: activity against Plutella xylostella (diamondback moth), 96-well artificial diet; details: 216 h, application rate 500 ppm, 9 days after infestation
Procedure: Example B14: Activity Against Plutella xylostella (Diamondback Moth)
96-well microtiter plates containing artificial diet were treated with aqueous test solutions, prepared from 10,000 ppm DMSO stock solutions, by a liquid handling robot. After drying, eggs (30 per well) were infested onto a netted lid which was suspended above the diet. The eggs hatch and L1 larvae move down to the diet. The samples were assessed for mortality 9 days after infestation.
The following compounds gave an effect of at least 80% average mortality at an application rate of 500 ppm: […]

[4] = system: Diabrotica Balteata (Corn Root Worm); experiment: Example B1: Diabrotica balteata (corn root worm), maize sprouts sprayed, L2 larvae; details: 96 h, application rate 200 ppm, 4 days after infestation, read-out: effect in at least one of the two categories (mortality or growth inhibition)
Procedure: Example B1: Diabrotica Balteata (Corn Root Worm)
Maize sprouts placed onto an agar layer in 24-well microtiter plates were treated with aqueous test solutions prepared from 10,000 ppm DMSO stock solutions by spraying. After drying, the plates were infested with L2 larvae (6 to 10 per well). The samples were assessed for mortality and growth inhibition in comparison to untreated samples 4 days after infestation.
(§1) The following compounds gave an effect of at least 80% in at least one of the two categories (mortality or growth inhibition) at an application rate of 200 ppm: […]

[5] = system: Spodoptera littoralis (Egyptian Cotton Leaf Worm); experiment: Example B9: Spodoptera littoralis (Egyptian cotton leaf worm), cotton leaf discs sprayed, L1 larvae; details: foliar, 72 h, application rate 200 ppm, 3 days after infestation
Procedure: Example B9: Spodoptera littoralis (Egyptian Cotton Leaf Worm)
Cotton leaf discs were placed onto agar in 24-well microtiter plates and sprayed with aqueous test solutions prepared from 10,000 ppm DMSO stock solutions. After drying the leaf discs were infested with five L1 larvae. The samples were assessed for mortality, anti-feeding effect, and growth inhibition in comparison to untreated samples 3 days after infestation. Control of Spodoptera littoralis by a test sample is given when at least one of the three categories (i.e. mortality, anti-feedant effect, and growth inhibition) is higher than the untreated sample.

[6] = system: Euschistus heros (Neotropical Brown Stink Bug); experiment: Example B2: Euschistus heros (neotropical brown stink bug), soybean leaves sprayed, N2 nymphs; details: 120 h, application rate 200 ppm, 5 days after infestation, read-out: effect in at least one of the two categories (mortality or growth inhibition)
Procedure: Example B2: Euschistus heros (Neotropical Brown Stink Bug)
Soybean leaves on agar in 24-well microtiter plates were sprayed with aqueous test solutions prepared from 10,000 ppm DMSO stock solutions. After drying the leaves were infested with N2 nymphs. The samples were assessed for mortality and growth inhibition in comparison to untreated samples 5 days after infestation.
as §1

CC(c1ncnn1-c1ncccn1)N(CC1CC1)C(=O)c1cnc(C2CC2)nc1 (centres unmarked) [P11, 2-cyclopropyl-N-(cyclopropylmethyl)-N-[1-(2-pyrimidin-2-yl-1,2,4-triazol-3-yl)ethyl]pyrimidine-5-carboxamide]
≥ 80%: mortality at 50 ppm [1]

CC(c1ncnn1-c1ncccn1)N(CC1CC1)C(=O)c1cccc(-c2cccc(C(F)(F)F)c2)n1 (centres unmarked) [P15, N-(cyclopropylmethyl)-N-[1-(2-pyrimidin-2-yl-1,2,4-triazol-3-yl)ethyl]-6-[3-(trifluoromethyl)phenyl]pyridine-2-carboxamide]
≥ 80%: percent effect (mortality or growth inhibition) at 200 ppm [2] | mortality at 50 ppm [1] | mortality at 500 ppm [3]

CC(c1ncnn1-c1ncccn1)N(CC1CC1)C(=O)c1ccc(N2CCCCC2=O)cc1 (centres unmarked) [P17, N-(cyclopropylmethyl)-4-(2-oxo-1-piperidyl)-N-[1-(2-pyrimidin-2-yl-1,2,4-triazol-3-yl)ethyl]benzamide]
≥ 80%: mortality at 50 ppm [1]

CC(c1ncnn1-c1ncccn1)N(CC1CC1)C(=O)c1ccc(-n2ccccc2=O)cc1 (centres unmarked) [P18, N-(cyclopropylmethyl)-4-(2-oxo-1-pyridyl)-N-[1-(2-pyrimidin-2-yl-1,2,4-triazol-3-yl)ethyl]benzamide]
≥ 80%: mortality at 50 ppm [1]

CC(c1ncnn1-c1ncccn1)N(CC1CC1)C(=O)c1cc(N2CC(F)(F)C2)cc(C(F)(F)F)c1 (centres unmarked) [P20, N-(cyclopropylmethyl)-3-(3,3-difluoroazetidin-1-yl)-N-[1-(2-pyrimidin-2-yl-1,2,4-triazol-3-yl)ethyl]-5-(trifluoromethyl)benzamide]
≥ 80%: mortality at 50 ppm [1] | mortality at 500 ppm [3]

CC(c1ncnn1-c1ncccn1)N(CC1CC1)C(=O)c1cc(C(F)(F)F)cc(C(C)(C)C#N)n1 (centres unmarked) [P31, 6-(1-cyano-1-methyl-ethyl)-N-(cyclopropylmethyl)-N-[1-(2-pyrimidin-2-yl-1,2,4-triazol-3-yl)ethyl]-4-(trifluoromethyl)pyridine-2-carboxamide]
≥ 80%: percent effect (mortality or growth inhibition) at 200 ppm [2] | percent effect (mortality or growth inhibition) at 200 ppm [4] | mortality at 50 ppm [1] | mortality at 500 ppm [3]

CC(c1ncnn1-c1ncccn1)N(CC1CC1)C(=O)c1cc(C(F)(F)F)cc(C2(C#N)CC2)n1 (centres unmarked) [P33, 6-(1-cyanocyclopropyl)-N-(cyclopropylmethyl)-N-[1-(2-pyrimidin-2-yl-1,2,4-triazol-3-yl)ethyl]-4-(trifluoromethyl)pyridine-2-carboxamide]
≥ 80%: percent effect (mortality or growth inhibition) at 200 ppm [2] | percent effect (mortality or growth inhibition) at 200 ppm [4] | mortality at 50 ppm [1] | mortality at 500 ppm [3]

CC(c1ncnn1-c1ncccn1)N(CC1CC1)C(=O)c1cc(-c2ccc(F)cc2)cc(C(F)(F)F)c1 (centres unmarked) [P36, N-(cyclopropylmethyl)-3-(4-fluorophenyl)-N-[1-(2-pyrimidin-2-yl-1,2,4-triazol-3-yl)ethyl]-5-(trifluoromethyl)benzamide]
≥ 80%: percent control (mortality, anti-feedant effect or growth inhibition) at 200 ppm [5] | percent effect (mortality or growth inhibition) at 200 ppm [2] | mortality at 500 ppm [3]

CC(c1ncnn1-c1ncccn1)N(CC1CC1)C(=O)c1cc(C(F)(F)F)cc(C2(C)CC2)c1 (centres unmarked) [P38, N-(cyclopropylmethyl)-3-(1-methylcyclopropyl)-N-[1-(2-pyrimidin-2-yl-1,2,4-triazol-3-yl)ethyl]-5-(trifluoromethyl)benzamide]
≥ 80%: percent effect (mortality or growth inhibition) at 200 ppm [2] | mortality at 500 ppm [3]

CC(c1ncnn1-c1ncccn1)N(CC1CC1)C(=O)c1cccc(C(F)(F)C2CC2)c1 (centres unmarked) [P40, 3-[cyclopropyl(difluoro)methyl]-N-(cyclopropylmethyl)-N-[1-(2-pyrimidin-2-yl-1,2,4-triazol-3-yl)ethyl]benzamide]
≥ 80%: percent control (mortality, anti-feedant effect or growth inhibition) at 200 ppm [5] | percent effect (mortality or growth inhibition) at 200 ppm [2] | percent effect (mortality or growth inhibition) at 200 ppm [4] | mortality at 50 ppm [1] | mortality at 500 ppm [3]

CC(c1ncnn1-c1ncccn1)N(CC1CC1)C(=O)c1cc(C(F)(F)F)cc(C2(C(F)(F)F)CC2(F)F)c1 (centres unmarked) [P41, N-(cyclopropylmethyl)-3-[2,2-difluoro-1-(trifluoromethyl)cyclopropyl]-N-[1-(2-pyrimidin-2-yl-1,2,4-triazol-3-yl)ethyl]-5-(trifluoromethyl)benzamide]
≥ 80%: percent control (mortality, anti-feedant effect or growth inhibition) at 200 ppm [5] | percent effect (mortality or growth inhibition) at 200 ppm [6] | percent effect (mortality or growth inhibition) at 200 ppm [2] | percent effect (mortality or growth inhibition) at 200 ppm [4] | mortality at 500 ppm [3]

CC(c1ncnn1-c1ncccn1)N(CC1CC1)C(=O)c1cc(C(F)(F)F)cc(C2(C)CC2(F)F)c1 (centres unmarked) [P44, N-(cyclopropylmethyl)-3-(2,2-difluoro-1-methyl-cyclopropyl)-N-[1-(2-pyrimidin-2-yl-1,2,4-triazol-3-yl)ethyl]-5-(trifluoromethyl)benzamide]
≥ 80%: percent control (mortality, anti-feedant effect or growth inhibition) at 200 ppm [5] | percent effect (mortality or growth inhibition) at 200 ppm [6] | percent effect (mortality or growth inhibition) at 200 ppm [2] | percent effect (mortality or growth inhibition) at 200 ppm [4] | mortality at 50 ppm [1] | mortality at 500 ppm [3]

CC(c1ncnn1-c1ncccn1)N(CC1CC1)C(=O)c1cc(OCC2CC2)cc(C(F)(F)F)c1 (centres unmarked) [P47, 3-(cyclopropylmethoxy)-N-(cyclopropylmethyl)-N-[1-(2-pyrimidin-2-yl-1,2,4-triazol-3-yl)ethyl]-5-(trifluoromethyl)benzamide]
≥ 80%: percent effect (mortality or growth inhibition) at 200 ppm [2] | mortality at 50 ppm [1] | mortality at 500 ppm [3]

CC(c1ncnn1-c1ncccn1)N(CC1CC1)C(=O)c1cc(OC2CC2)cc(C(F)(F)F)c1 (centres unmarked) [P51, 3-(cyclopropoxy)-N-(cyclopropylmethyl)-N-[1-(2-pyrimidin-2-yl-1,2,4-triazol-3-yl)ethyl]-5-(trifluoromethyl)benzamide]
≥ 80%: percent control (mortality, anti-feedant effect or growth inhibition) at 200 ppm [5] | percent effect (mortality or growth inhibition) at 200 ppm [2] | percent effect (mortality or growth inhibition) at 200 ppm [4] | mortality at 50 ppm [1] | mortality at 500 ppm [3]

CC(c1ncnn1-c1ncccn1)N(CC1CC1)C(=O)c1cc(C(F)(F)F)nc(S(C)(=O)=O)c1 (centres unmarked) [P53, N-(cyclopropylmethyl)-2-methylsulfonyl-N-[1-(2-pyrimidin-2-yl-1,2,4-triazol-3-yl)ethyl]-6-(trifluoromethyl)pyridine-4-carboxamide]
≥ 80%: percent effect (mortality or growth inhibition) at 200 ppm [6]

CC(NC(=O)c1cc(OC(C)(C)C#N)cc(C(F)(F)F)c1)c1ncnn1-c1ncccn1 (centres unmarked) [P56, 3-(1-cyano-1-methyl-ethoxy)-N-[1-(2-pyrimidin-2-yl-1,2,4-triazol-3-yl)ethyl]-5-(trifluoromethyl)benzamide]
≥ 80%: percent control (mortality, anti-feedant effect or growth inhibition) at 200 ppm [5] | percent effect (mortality or growth inhibition) at 200 ppm [2] | percent effect (mortality or growth inhibition) at 200 ppm [4]

CC(c1ncnn1-c1ncccn1)N(CC1CC1)C(=O)c1cc(OC2CC2)cc(OC2CC2)c1 (centres unmarked) [P60, 3,5-bis(cyclopropoxy)-N-(cyclopropylmethyl)-N-[1-(2-pyrimidin-2-yl-1,2,4-triazol-3-yl)ethyl]benzamide]
≥ 80%: percent effect (mortality or growth inhibition) at 200 ppm [2] | percent effect (mortality or growth inhibition) at 200 ppm [4] | mortality at 50 ppm [1] | mortality at 500 ppm [3]

CC(NC(=O)c1cc(-n2ccc(Cl)n2)nc(C(F)(F)F)c1)c1ncnn1-c1ncccn1 (centres unmarked) [P70, 2-(3-chloropyrazol-1-yl)-N-[1-(2-pyrimidin-2-yl-1,2,4-triazol-3-yl)ethyl]-6-(trifluoromethyl)pyridine-4-carboxamide]
≥ 80%: percent control (mortality, anti-feedant effect or growth inhibition) at 200 ppm [5] | percent effect (mortality or growth inhibition) at 200 ppm [2] | mortality at 500 ppm [3]
